Measured values from publication PMC12490239, “Combining BET inhibition with SMAC mimetics restricts tumor growth and triggers immune surveillance in preclinical cancer models” (Cell Reports Medicine, 2025).

Assays:
Assay in all cases: cells
Parameters in all cases: CellTiter-Glo 2.0 luminescence proliferation/viability assay, single agents, human tumour cell line panel
[1] = system: SW1417; conditions: Homo sapiens, SW1417, 96 h; single agent; read-out: IC50 SMACm
Outline: (§1)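 Human tumour cell lines were seeded into assay plates and held at 37°C with 5% CO2 for twenty-four hours, then exposed in triplicate to rising concentrations of the SMAC mimetic, from 4.5 nM to 10 μM, with DMSO as control. After 96 h, viability was read as CellTiter-Glo2.0 luminescence to derive single-agent IC50 values.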

[2] = system: COLO678; conditions: Homo sapiens, COLO-678, 96 h; single agent; read-out: IC50 SMACm
Outline: as §1

[3] = system: Calu-6; conditions: Homo sapiens, Calu-6, 96 h; single agent; read-out: IC50 SMACm
Outline: as §1

[4] = system: C32; conditions: Homo sapiens, C32, 96 h; single agent; read-out: IC50 SMACm
Outline: as §1

[5] = system: CCK81; conditions: 96 h; single agent; read-out: IC50 SMACm
Outline: as §1

[6] = system: SNU1181; conditions: 96 h; single agent; read-out: IC50 SMACm
Outline: as §1

[7] = system: LS-513; conditions: Homo sapiens, LS-513, 96 h; single agent; read-out: IC50 SMACm
Outline: as §1

[8] = system: COLO-320-HSR; conditions: Homo sapiens, COLO-320-HSR, 96 h; single agent; read-out: IC50 SMACm
Outline: as §1

[9] = system: SNU-16; conditions: Homo sapiens, SNU-16, 96 h; single agent; read-out: IC50 SMACm
Outline: as §1

[10] = system: SNU-324; conditions: 96 h; single agent; read-out: IC50 SMACm
Outline: as §1

[11] = system: GSU; conditions: 96 h; single agent; read-out: IC50 SMACm
Outline: as §1

[12] = system: HUTU80; conditions: Homo sapiens, HuTu80, 96 h; single agent; read-out: IC50 SMACm
Outline: as §1

[13] = system: SNU1040; conditions: 96 h; single agent; read-out: IC50 SMACm
Outline: as §1

[14] = system: SNU1047; conditions: 96 h; single agent; read-out: IC50 SMACm
Outline: as §1

[15] = system: LU-65; conditions: Homo sapiens, Lu-65, 96 h; single agent; read-out: IC50 SMACm
Outline: as §1

- IC50 [1]: 3.9 µM
- IC50 [2]: 2.59 µM
- IC50 [3]: 4.93 µM
- IC50 [6]: 5.08 µM
- IC50 [8]: 2.86 µM
- IC50 [9]: 4.32 µM
- IC50 [10]: 4.7 µM
- IC50 [13]: 3.59 µM
- IC50 [14]: 2.79 µM
Structure (SMILES): CN[C@@H](C)C(=O)Nc1ccc(-c2c(-c3cccnc3OC)nc3cc(C)ccn23)c(C#Cc2ccc3c(C)nccc3c2)n1 [SMACm, BI 891065]
- IC50 [4]: 1.09 µM
- IC50 [5]: 7.34 µM
- IC50 [7]: 5.77 µM
- IC50 [11]: 5.68 µM
- IC50 [12]: 1.36 µM
- IC50 [15]: 4.35 µM
